6 compounds from PMC11705955, “Lack of activity of HIV-1 integrase strand-transfer inhibitors on recombinase activating gene (RAG) activity at clinically relevant concentrations” (Microbiology Spectrum, 2024) can be followed below.

pIC50: −log10 of the molar value. Entries after “also recorded” stand apart in the source; their conditions may differ. Where two headings read alike, the source gives them in different places.

Series [1] is described as follows: 5-day cytotoxicity assay with Cell Titer Glo readout, GALPC3. To be noted: human. The format is cell-based. The text has this:
(§1) Supplemental Table S2. CC50 values for INSTIs in 5- day cytotoxicity as says with Cell Titer
(§2) Expi293F GALPC3 GALHEP HUH7 MRC5 MT4 PBMC PBMC
(§3) Kidney Prostate Hepatoma Hepatoma Lung T-cell line Primary Primary
(§4) (embryonic) cancer cell cell line cell line fibroblast cells
For orientation: In ATP-based viability assays light output follows the ATP content of the culture.

The subject of series [2] is Expi293F cells. Kind of series: Cell viability (CellTiterGlo) in the cellular RAG assay. The format is cell-based, human. Particulars: 48 hours after transfection, up to 10 µM (p8 up to 50 µM). The protocol:
After 48-h incubation at 37°C in a humidified 8% CO2 incubator, 100 µL of cell suspension was transferred to 96-well black assay plates (Corning). Each well of the assay plates then received 100 µL CellTiterGlo reagent and the resulting luminescence signal was read using the PHERAstar FSX plate reader (BMG Labtech, Germany).
Supplemental Figure S4. Cytotoxicity analysis of INSTIs in the cellular RAG assay using […]
Concentration (μM) Concentration (μM) Concentration (μM)
Expi293F cells were co-t ransfected with pMAXgfp- INV plasmid substrate, mCherry- core RAG1 , mCherry RAG2, with INSTIs added 2 hours after transfection. Six different concentrations of each […]
added to separate wells. % live cells normalized to 0.1% DMSO data are presented for INSTIs tested in cell viability (Cell- Titer Glo) assay 48 hours after transfection. BIC (n=5), CAB (n=3), concentrations tested. An ordinary one-way ANOVA with Dunnett's multiple comparisons test unmarked datapoints = not significant. […]
was used to compare % GFP levels to the DMSO control, *P ≤ 0.05, **P ≤ 0.01, ***P ≤ 0.001, (also on this page, place not known: live normalized 0.001 % live cells normalized DMSO 0.001 10 % live cells normalized DMSO 0.001 10 % live cells normalized to DMSO 0.001 10 % live cells normalized to DMSO E xpi293F cells co-transfected pMAXgfp-INV mCherry-core RAG1, 5-fold 10 to % live cells normalized to DMSO (n=3) one -way to % to DMSO)

In series [3] the test system is murine mCherry-core RAG1 / mCherry-RAG2 V(D)J recombination in Expi293F cells. Kind of series: Extrachromosomal cell-based V(D)J recombination assay (GFP reporter, flow cytometry). Particulars: for Effect on percentage of GFP-positive cells / RAG recombination: across concentrations tested, 48 h post-transfection. The source says: To further evaluate the effect of HIV-1 integrase inhibitors on RAG activity in a cellular context, we optimized a novel extrachromosomal cell-based V(D)J recombination assay, enabling assessment of multiple compounds in a dose–response manner by flow cytometry ([33]). The schematic of FL murine RAG1 and RAG2 proteins, including the active site residues (DDE motif) in RAG1 and catalytically essential core regions of each protein, are shown in Fig. 5A. The cell-based assay used vectors that encode for the core RAG1 protein (instead of the FL version) and FL murine RAG2 expressed as C-terminal fusions to mCherry, termed mCherry-core RAG1 and mCherry-RAG2. The core regions of each RAG protein are sufficient to catalyze V(D)J recombination, whereas the non-core regions function to regulate the recombination reaction ([13]). […] The consensus RSS used in this assay contains a conserved heptamer and nonamer separated by 12 or 23 non-conserved bp (12RSS and 23RSS) (Fig. 5B). A general schematic of the design for the plasmid substrate with the 12RSS and 23RSS orientations before and after V(D)J recombination is presented in Fig. 5C. More specifically, the plasmid substrate pMAXgfp-INV was designed with a 12RSS and a 23RSS flanking each side of the Pontellina plumata green fluorescent protein gene (termed maxGFP), where the gene is in an inverted orientation relative to the CMV promoter (Fig. 5D). The RSSs are positioned in a co-linear orientation, such that successful V(D)J recombination activity will result in inversion of the maxGFP gene to place it in a transcriptionally active orientation with resulting expression of GFP. Detection of GFP-expressing cells using microscopy and flow cytometry was used as a direct readout of V(D)J recombination activity.
For the recombination assay, the pMAXgfp-INV plasmid substrate and RAG1/RAG2 expression vectors (mCherry-core RAG1 and mCherry-RAG2) were transiently transfected into Expi293 cells in the absence or presence of integrase inhibitors and were assessed via microscopy and flow cytometry. The fluorescence signal from the mCherry-tag is used to assess transfection efficiency of RAG1/RAG2 vectors (Fig. 6A). We observed that transfection of the pMAXgfp-INV substrate into Expi293 cells with RAG1/RAG2 expression vectors yielded robust GFP expression 48 h post-transfection in the cells treated with vehicle control (0.1% dimethyl sulfoxide [DMSO]) (Fig. 6A). […] NU7026 inhibits double-strand break repair, which is a necessary step after DNA cleavage by RAG enzymes, and thus serves as an indirect inhibitor of RAG activity ([35]).
To test the effect of HIV-1 integrase inhibitors on V(D)J recombination activity, we optimized an extrachromosomal cell-based V(D)J recombination assay ([33]). Briefly, Expi293 cells were plated at 1 × 10^6 cells/mL in six-well plates in Gibco Expi293 expression media the day before transfection. The next day, the Expi293 cells were co-transfected with three separate vectors, pMAXgfp-INV plasmid substrate, mCherry-core RAG1, and mCherry-RAG2 expression vectors with a 4:1 transfection reagent:DNA ratio using ExpiFectamine 293 transfection reagent (Gibco). Vehicle or candidate inhibitors were added to cell samples 2 h after transfection, with six different concentrations of each inhibitor added to separate wells. Fivefold dilutions for each inhibitor starting from 10 µM were tested.
Experiments were performed with six separate inhibitors in at least three independent experiments. Two negative control conditions for recombination activity were performed in parallel and include (i) transfections in the presence of NU7026 at 30 and 50 µM (Abcam) and (ii) using a modified pMAXgfp-INV substrate containing two 12RSSs (instead of one 12RSS and one 23RSS) that is inefficiently recombined by the RAG proteins. Vehicle control (0.1% DMSO) served as the positive control for GFP expression. The fluorescence signal from the mCherry tag was used to assess transfection efficiency. […]

Series [4] in a line: 5-day cytotoxicity assay with Cell Titer Glo readout, MRC5. The format is cell-based. To be noted: human.
Description: as §1, §2, §3, §4

A short description of series [5]: 5-day cytotoxicity assay with Cell Titer Glo readout, HUH7. The format is cell-based. To be noted: human.
Description: as §1, §2, §3, §4

The nature of series [6]: 5-day cytotoxicity assay with Cell Titer Glo readout, GALHEPG2. The format is cell-based. Particulars: human.
Description: as §1, §2, §3, §4

The nature of series [7]: 5-day cytotoxicity assay with Cell Titer Glo readout, PBMC. The format is cell-based.
Description: as §1, §2, §3, §4

Series [8] deals with PBMC primary cells. Described as above. The format is cell-based.
Description: as §1, §2, §3, §4

Series [9] can be described thus: 5-day cytotoxicity assay with Cell Titer Glo readout, Expi293F. The format is cell-based. To be noted: human.
Description: as §1, §2, §3, §4

A short description of series [10]: 5-day cytotoxicity assay with Cell Titer Glo readout, MT4. To be noted: human. The format is cell-based.
Description: as §1, §2, §3, §4

The CC50 is the concentration at which the toxic effect on the cells reaches its halfway point. On to `O=C(NCc1c(F)cc(F)cc1F)c1cn2c(c(O)c1=O)C(=O)N1[C@H]3CC[C@H](C3)O[C@@H]1C2` [BIC, bictegravir], for which the cytotoxic concentration (CC50) at 5 day was more than 44.4 µM in series [1]; more than 44.4 µM in [4]; 38 µM in series [5]; 17.4 µM in series [6]; 28.5 µM in [7] (CC50); 46 µM in [9]. In series [10], this compound showed a 50% cytotoxic concentration (CC50) at 5 day of 2.59 µM. The “Cellular toxicity, % live cells normalized to 0.1% DMSO” value in series [2] was “minimal effects on cellular toxicity”. The “Effect on percentage of GFP-positive cells / RAG recombination” value in series [3] is on record as “did not observe a reduction in percentage of GFP-positive cells; also recorded: do not show inhibitory activity”. The same compound came in with a CC50 in series [8] (5 day) of 24.2 µM.

As for `Cc1nnc(C(=O)NC(C)(C)c2nc(C(=O)NCc3ccc(F)cc3)c(O)c(=O)n2C)o1` [RAL, raltegravir], the CC50 at 5 day in series [1] (GALPC3, 5-day, Cell Titer Glo, read-out: CC50) was more than 44.4 µM; in series [4] (MRC5, 5-day, Cell Titer Glo, read-out: CC50), more than 44.4 µM; in series [5] (HUH7, 5-day, Cell Titer Glo, read-out: CC50), more than 44.4 µM; in [6] (GALHEPG2, 5-day, Cell Titer Glo, read-out: CC50), more than 44.4 µM; in series [7] (PBMC Lot1, 5-day, Cell Titer Glo, read-out: CC50), more than 44.3 µM; in [9] (Expi293F, 5-day, Cell Titer Glo, read-out: CC50) it was more than 100 µM. Further, the CC50 at 5 day in series [10] (MT4, 5-day, Cell Titer Glo, read-out: CC50) was more than 50 µM. Besides, the “Cellular toxicity, % live cells normalized to 0.1% DMSO” value in series [2] is listed as “minimal effects on cellular toxicity”. The “Effect on percentage of GFP-positive cells / RAG recombination” value in [3] was “did not observe a reduction in percentage of GFP-positive cells; also recorded: do not show inhibitory activity”. For the same compound, the CC50 in [8] (PBMC Lot2, 5-day, Cell Titer Glo, read-out: CC50) is more than 44.3 µM.

Consider `C[C@@H]1CCO[C@H]2Cn3cc(C(=O)NCc4ccc(F)cc4F)c(=O)c(O)c3C(=O)N12` [DTG, dolutegravir], for which the CC50 at 5 day in [1] is more than 44.4 µM; in series [4], 38.2 µM; in [5], 28.7 µM; in [6], more than 44.4 µM; in series [7] (CC50), 28.4 µM; in [9], 53.6 µM. Also, in series [10], the CC50 at 5 day turned out to be 7.53 µM. Also, the “Cellular toxicity, % live cells normalized to 0.1% DMSO” value in series [2] is on record as “minimal effects on cellular toxicity”. Also, the “Effect on percentage of GFP-positive cells / RAG recombination” value in series [3] is on record as “did not observe a reduction in percentage of GFP-positive cells; also recorded: do not show inhibitory activity”. Moreover, in series [8] (5 day), the cytotoxic concentration (CC50) was found to be 17.9 µM.

Turning to `COc1cc2c(cc1Cc1cccc(Cl)c1F)c(=O)c(C(=O)O)cn2[C@H](CO)C(C)C` [EVG, elvitegravir], the 50% cytotoxic concentration (CC50) at 5 day in [1] was found to be 20.8 µM; in series [4], 14.3 µM; in [5] it was 20.4 µM; in series [6] it was 9.02 µM; in [7] (CC50) it was 14.6 µM; in series [9], 32.5 µM. The same compound gave a CC50 at 5 day in [10] of 3.75 µM. For the same compound, the “Cellular toxicity, % live cells normalized to 0.1% DMSO” value in series [2] is recorded as “minimal effects on cellular toxicity”. Moreover, the “Effect on percentage of GFP-positive cells / RAG recombination” value in [3] was “do not show inhibitory activity”. This compound also had a CC50 in series [8] (5 day) of 14.1 µM.

On to `C[C@H]1CO[C@@H]2Cn3cc(C(=O)NCc4ccc(F)cc4F)c(=O)c(O)c3C(=O)N12` [CAB, cabotegravir], for which the CC50 at 5 day in [1] was more than 44.4 µM; in series [4], 28.1 µM; in series [5], 21.5 µM; in [6], 37.9 µM; in series [7] (CC50), 30 µM; in series [9], more than 100 µM. Also, the midpoint of cytotoxicity in [10], the CC50 at 5 day, lay at 5.25 µM. The “Cellular toxicity, % live cells normalized to 0.1% DMSO” value in series [2] was “minimal effects on cellular toxicity”. Further, the “Effect on percentage of GFP-positive cells / RAG recombination” value in series [3] was “did not observe a reduction in percentage of GFP-positive cells; also recorded: do not show inhibitory activity”. In series [8] (5 day), this compound gave a CC50 of 29.5 µM.

As usually defined, the pIC50 is the negative decadic logarithm of the IC50, by convention in mol/L. Regarding `O=C(/C=C(\O)c1nnn[nH]1)c1c[nH]c2ccc(Cl)cc12` [p8, 5-CITEP], the CC50 at 5 day in [1] was more than 44.4 µM; in series [4], more than 44.4 µM; in series [5], more than 44.4 µM; in series [6], more than 44.4 µM; in [7] (CC50) it was more than 44.3 µM; in series [9] it was more than 100 µM. For the same compound, in series [10], the CC50 at 5 day was more than 50 µM. In series [2], the “Cellular toxicity, % live cells normalized to 0.1% DMSO” value was “minimal effects on cellular toxicity”. The negative-log IC50 (pIC50) in [3] (Mus musculus, Expi293F, compound added 2 h after transfection, read 48 h post-transfection, serum-free media, read-out: IC50 in cellular V(D)J recombination assay (% GFP-positive cells)) was less than 4.30. The compound also registered a CC50 in series [8] (5 day) of more than 44.3 µM.
